{"source": "ChEMBL document CHEMBL1909544", "about": "“Renin inhibitors for the treatment of hypertension: design and optimization of a novel series of tertiary alcohol-bearing piperidines” (Bioorg Med Chem Lett, 2011)", "format_in_all_cases": "ADME, organism-based", "key": {"[1]": {"assay": "Volume of distribution at steady state in Sprague-Dawley rat at 3 mg/kg, po and 5 mg/kg, iv", "details": "in vivo, read-out: Vdss"}, "[2]": {"assay": "Half life in Sprague-Dawley rat at 3 mg/kg, po and 5 mg/kg, iv", "details": "in vivo"}, "[3]": {"assay": "Clearance in Sprague-Dawley rat at 3 mg/kg, po and 5 mg/kg, iv", "details": "in vivo"}, "[4]": {"assay": "AUC in Sprague-Dawley rat at 3 mg/kg, po", "design": "dose 3 mg/kg, route oral", "details": "plasma"}, "[5]": {"assay": "Oral bioavailability in Sprague-Dawley rat at 3 mg/kg", "details": "in vivo"}, "[6]": {"assay": "Oral bioavailability in Sprague-Dawley rat at 30 mg/kg", "details": "in vivo"}, "[7]": {"assay": "Half life in Sprague-Dawley rat at 5 mg/kg, iv", "design": "dose 5 mg/kg, route intravenous", "details": "in vivo"}, "[8]": {"assay": "Clearance in Sprague-Dawley rat at 5 mg/kg, iv", "design": "dose 5 mg/kg, route intravenous", "details": "in vivo"}, "[9]": {"assay": "Volume of distribution at steady state in Sprague-Dawley rat at 5 mg/kg, iv", "design": "dose 5 mg/kg, route intravenous", "details": "in vivo, read-out: Vdss"}, "[10]": {"assay": "Oral bioavailability in Sprague-Dawley rat at 0.3 mg/kg", "details": "in vivo"}}, "data": [{"smiles": "O=C([C@H]1CNCC[C@]1(O)c1ccc(F)c(F)c1)N(Cc1cn(Cc2cccc(F)c2)c2cccc(F)c12)C1CC1", "note": "(racemic)", "values": [{"measurement": "Vd", "setting": "[1]", "value": 48, "unit": "L/kg"}, {"measurement": "half-life", "setting": "[2]", "value": 9.4, "unit": "h"}, {"measurement": "clearance", "setting": "[3]", "value": 93, "unit": "mL/min/kg"}, {"measurement": "AUC", "setting": "[4]", "value": 0.34, "unit": "µM·h"}, {"measurement": "bioavailability", "setting": "[5]", "value": 37, "unit": "%"}]}, {"smiles": "COCCCc1cc(CN(C(=O)C2CNCCC2(O)c2ccc(F)c(F)c2)C2CC2)cc(OCCOC)c1", "note": "(single isomer, unassigned)", "values": [{"measurement": "bioavailability", "setting": "[6]", "value": 18, "unit": "%"}, {"measurement": "half-life", "setting": "[7]", "value": 1.5, "unit": "h"}, {"measurement": "clearance", "setting": "[8]", "value": 36, "unit": "mL/min/kg"}, {"measurement": "Vd", "setting": "[9]", "value": 5, "unit": "L/kg"}, {"measurement": "bioavailability", "setting": "[10]", "value": 17, "unit": "%"}, {"measurement": "bioavailability", "setting": "[5]", "value": 29, "unit": "%"}]}, {"smiles": "O=C([C@H]1CNCC[C@]1(OCC(O)CO)c1ccc(F)c(F)c1)N(Cc1cn(Cc2cccc(F)c2)c2cccc(F)c12)C1CC1", "note": "(mixture of isomers)", "values": [{"measurement": "Vd", "setting": "[1]", "value": 0.4, "unit": "L/kg"}, {"measurement": "half-life", "setting": "[2]", "value": 2.6, "unit": "h"}, {"measurement": "clearance", "setting": "[3]", "value": 16, "unit": "mL/min/kg"}, {"measurement": "AUC", "setting": "[4]", "value": 0.04, "unit": "µM·h"}, {"measurement": "bioavailability", "setting": "[5]", "value": "< 1", "unit": "%"}]}]}
